Assay results published in article PMC9516332 (Frontiers in Oncology, 2022).
Where two headings read alike, the source gives them in different places.

System: 134 cancer cell lines
Assay: Cell viability assay (ATPlite, 72 hours), IC50 on cancer cell line panel

## O=C(c1ccc(F)c(F)c1Nc1ccc(I)cc1F)N1CC(O)([C@@H]2CCCCN2)C1 [cobimetinib]
Homo sapiens, MKN-45, read-out: IC50 in cell proliferation assay, MKN45 cell line (MET amplification)
  IC50: 294 nM
Homo sapiens, MOLM-13, read-out: IC50 in cell proliferation assay, MOLM-13 cell line (FLT3 ITD)
  IC50: 172 nM
Homo sapiens, MOLT-4, read-out: IC50 in cell proliferation assay, MOLT-4 cell line
  IC50: > 10000 nM
Homo sapiens, MV4-11, read-out: IC50 in cell proliferation assay, MV4-11 cell line (FLT3 ITD)
  IC50: 111 nM
Homo sapiens, MeWo, read-out: IC50 in cell proliferation assay, MeWo cell line
  IC50: 330 nM
Homo sapiens, NCCIT, read-out: IC50 in cell proliferation assay, NCC-IT cell line
  IC50: 1290 nM
Homo sapiens, NCI-H82, read-out: IC50 in cell proliferation assay, cell line NCI-H82
  IC50: 8220 nM
Homo sapiens, NCI-H460, read-out: IC50 in cell proliferation assay, NCI-H460 cell line
  IC50: 77 nM
Homo sapiens, NCI-H661, read-out: IC50 in cell proliferation assay, NCI-H661 cell line
  IC50: > 10000 nM
Homo sapiens, NCI-H716, read-out: IC50 in cell proliferation assay, cell line NCI-H716 (FGFR2-COL14A1)
  IC50: 921 nM
Homo sapiens, NCI-H1650, read-out: IC50 in cell proliferation assay, NCI-H1650 cell line (EGFR exon19del)
  IC50: 527 nM
Homo sapiens, NCI-H1975, read-out: IC50 in cell proliferation assay, NCI-H1975 cell line (EGFR p.L858R + p.T790M)
  IC50: 98 nM
Homo sapiens, NCI-H2228, read-out: IC50 in cell proliferation assay, NCI-H2228 cell line (EML4-ALK)
  IC50: 721 nM
Homo sapiens, OVCAR-3, read-out: IC50 in cell proliferation assay, cell line OVCAR-3
  IC50: > 10000 nM
Homo sapiens, PFSK-1, read-out: IC50 in cell proliferation assay, cell line PFSK-1
  IC50: > 10000 nM
Homo sapiens, RL95-2, read-out: IC50 in cell proliferation assay, cell line RL95-2 (EGFR p.A289V)
  IC50: 34 nM
Homo sapiens, RPMI-7951, read-out: IC50 in cell proliferation assay, cell line RPMI-7951 (BRAF p.V600E)
  IC50: 20 nM
Homo sapiens, RS4-11, read-out: IC50 in cell proliferation assay, cell line RS4;11
  IC50: > 10000 nM
Homo sapiens, Rec1, read-out: IC50 in cell proliferation assay, cell line REC-1
  IC50: 6390 nM
Homo sapiens, SHP77, read-out: IC50 in cell proliferation assay, cell line SHP-77
  IC50: > 10000 nM
Homo sapiens, SK-BR-3, read-out: IC50 in cell proliferation assay, cell line SK-BR-3 (ERBB2 amplification)
  IC50: > 10000 nM
Homo sapiens, SK-N-AS, read-out: IC50 in cell proliferation assay, cell line SK-N-AS
  IC50: 12 nM
Homo sapiens, SK-N-FI, read-out: IC50 in cell proliferation assay, cell line SK-N-FI
  IC50: 82 nM
Homo sapiens, SK-N-MC, read-out: IC50 in cell proliferation assay, cell line SK-N-MC
  IC50: 7630 nM
Homo sapiens, SK-N-SH, read-out: IC50 in cell proliferation assay, cell line SK-N-SH (ALK p.F1174L)
  IC50: 37 nM
Homo sapiens, SNU-5, read-out: IC50 in cell proliferation assay, cell line SNU-5 (MET amplification)
  IC50: 47 nM
Homo sapiens, SNU-16, read-out: IC50 in cell proliferation assay, cell line SNU-16 (FGFR2 amplification)
  IC50: 2490 nM
Homo sapiens, SNU-C2B, read-out: IC50 in cell proliferation assay, cell line SNU-C2B (EGFR p.R165Q)
  IC50: 324 nM
Homo sapiens, SU-DHL-1, read-out: IC50 in cell proliferation assay, cell line SU-DHL-1 (NPM1-ALK)
  IC50: 478 nM
Homo sapiens, SU-DHL-6, read-out: IC50 in cell proliferation assay, cell line SU-DHL-6
  IC50: 2020 nM
Homo sapiens, SUP-T1, read-out: IC50 in cell proliferation assay, cell line SUP-T1
  IC50: > 10000 nM
Homo sapiens, SW48, read-out: IC50 in cell proliferation assay, cell line SW48 (EGFR p.G719S)
  IC50: 59 nM
Homo sapiens, SW480, read-out: IC50 in cell proliferation assay, cell line SW480
  IC50: 342 nM
Homo sapiens, SW626, read-out: IC50 in cell proliferation assay, cell line SW626
  IC50: 146 nM
Homo sapiens, SW780, read-out: IC50 in cell proliferation assay, cell line SW780 (FGFR3-BAIAP2L1)
  IC50: 127 nM
Homo sapiens, SW837, read-out: IC50 in cell proliferation assay, cell line SW837
  IC50: 137 nM
Homo sapiens, SW872, read-out: IC50 in cell proliferation assay, cell line SW872 (BRAF p.V600E)
  IC50: 46 nM
Homo sapiens, SW900, read-out: IC50 in cell proliferation assay, cell line SW900
  IC50: 295 nM
Homo sapiens, SW948, read-out: IC50 in cell proliferation assay, cell line SW948
  IC50: 87 nM
Homo sapiens, SW982, read-out: IC50 in cell proliferation assay, cell line SW982 (BRAF p.V600E)
  IC50: 1700 nM
Homo sapiens, SW-620, read-out: IC50 in cell proliferation assay, cell line SW620
  IC50: 93 nM
Homo sapiens, T98G, read-out: IC50 in cell proliferation assay, cell line T98G
  IC50: 3340 nM
Homo sapiens, TCC-SUP, read-out: IC50 in cell proliferation assay, cell line TCCSUP
  IC50: 483 nM
Homo sapiens, THP-1, read-out: IC50 in cell proliferation assay, cell line THP-1
  IC50: 20 nM
Homo sapiens, U2OS, read-out: IC50 in cell proliferation assay, cell line U2OS
  IC50: 279 nM
Homo sapiens, U-87 MG, read-out: IC50 in cell proliferation assay, cell line U-87MG ATCC
  IC50: 925 nM
Homo sapiens, U-118-MG, read-out: IC50 in cell proliferation assay, cell line U-118MG
  IC50: 147 nM
Homo sapiens, UMUC3, read-out: IC50 in cell proliferation assay, cell line UM-UC-3
  IC50: 43 nM
Hs766T, read-out: IC50 in cell proliferation assay, Hs 766T cell line
  IC50: 6 nM
L-82, read-out: IC50 in cell proliferation assay, L-82 cell line (NPM1-ALK)
  IC50: 250 nM
Rh30, read-out: IC50 in cell proliferation assay, cell line Rh30
  IC50: 3410 nM
read-out: IC50 in cell proliferation assay, 11-18 cell line (EGFR p.L858R)
  IC50: > 10000 nM
read-out: IC50 in cell proliferation assay, Hs 852.T cell line
  IC50: 592 nM
read-out: IC50 in cell proliferation assay, JAR cell line
  IC50: 6290 nM
read-out: IC50 in cell proliferation assay, cell line 5637
  IC50: 452 nM
read-out: IC50 in cell proliferation assay, cell line A-388
  IC50: 171 nM
read-out: IC50 in cell proliferation assay, cell line DB
  IC50: 8690 nM
read-out: IC50 in cell proliferation assay, cell line DEL (NPM1-ALK)
  IC50: 4200 nM
read-out: IC50 in cell proliferation assay, cell line ES-2 (BRAF p.V600E)
  IC50: 32 nM
read-out: IC50 in cell proliferation assay, cell line PA-1
  IC50: 496 nM
read-out: IC50 in cell proliferation assay, cell line PC-3
  IC50: > 10000 nM
read-out: IC50 in cell proliferation assay, cell line RD
  IC50: 92 nM
read-out: IC50 in cell proliferation assay, cell line RKO (BRAF p.V600E)
  IC50: 38 nM
read-out: IC50 in cell proliferation assay, cell line RL
  IC50: > 10000 nM
read-out: IC50 in cell proliferation assay, cell line RT-4 (FGFR3-TACC3)
  IC50: 299 nM
read-out: IC50 in cell proliferation assay, cell line SR (NPM1-ALK)
  IC50: 509 nM
read-out: IC50 in cell proliferation assay, cell line T24
  IC50: 43 nM
read-out: IC50 in cell proliferation assay, cell line TT (RET p.C634W)
  IC50: 225 nM
read-out: IC50 in cell proliferation assay, cell line VA-ES-BJ
  IC50: 4580 nM
